Assay results taken from patent publication US8680119B2, “Ethers, secondary amines and derivatives thereof as modulators of the 5-HT2A serotonin receptor useful for the treatment of disorders related thereto” (Arena Pharmaceuticals, Inc., priority 2006, dated 2014).
pIC50: −log10 of the molar value.

What was measured:
human 5-HT2A receptor = human 5-HT2A receptor (Homo sapiens (Human), UniProt P28223); assay: [125I]DOI radioligand binding assay; conditions: 0.5 nM [125I]DOI, COS7 membranes with recombinant human 5-HT2A receptor
Experimental: For the IP accumulation assay (Example 3), HEK293 cells were transfected while for the DOI binding assay (Example 4) COS7 cells were transfected. Several protocols well known in the art can be used to transfect cells. The following protocol is representative of the transfection procedures used herein for COS7 or 293 cells.
On day one, COS-7 cells were plated onto 24 well plates, usually 1×10^5 cells/well or 2×10^5 cells/well, respectively. On day two, the cells were transfected by first mixing 0.25 μg cDNA in 50 μL serum-free DMEM/well and then 2 μL lipofectamine in 50 μL serum-free DMEM/well. The solutions (“transfection media”) were gently mixed and incubated for 15-30 minutes at room temperature. The cells were washed with 0.5 mL PBS and then 400 μL of serum free media was mixed with the transfection media and added to the cells. The cells were then incubated for 3-4 hours at 37° C./5% CO2. Then the transfection media was removed and replaced with 1 mL/well of regular growth media.
Compounds of the invention were tested for their ability to bind to a 5-HT2A receptor clone membrane preparation using a radioligand binding assay. Briefly, COS cells were transiently transfected with a pCMV expression vector containing a human 5-HT2A receptor (for the sequence of the receptor see U.S. Pat. No. 6,541,209, SEQ ID NO:24) as described in Example 2.
COS7 cells transfected with recombinant human 5-HT2A receptors were cultured for 48 hr post transfection, collected, washed with ice-cold phosphate buffered saline, pH7.4 (PBS), and then centrifuged at 48,000×g for […] at 4° C. The cell pellet was then resuspended in wash buffer containing 20 mM HEPES pH 7.4 and 0.1 mM EDTA, homogenized on ice using a Brinkman polytron, and recentrifuged at 48,000×g for 20 min. at 4° C. The resultant pellet was then resuspended in 20 mM HEPES, pH 7.4, homogenized on ice, and centrifuged (48,000×g for 20 min at 4° C.). Crude membrane pellets were stored at −80° C. until used for radioligand binding assays.
Radioligand binding assays for human 5-HT2A receptor was conducted using the 5-HT2 agonist [^125I]DOI as radioligand. To define nonspecific binding, 10 μM DOI was used for all assays. For competitive binding studies, 0.5 nM [^125I]DOI was used and compounds were assayed over a range of 0.01 nM to 10 μM. Assays were conducted in a total volume of 200 μl in 96-well Perkin Elmer GF/C filter plates in assay buffer (50 mM Tris-HCl, pH 7.4, 0.5 mM EDTA, 5 mM MgCl2, and 10 μM pargyline). […] Plates were then dried at room temperature and counted in a Wallac microBeta scintillation counter.

diabetic rats = conditions: range stated for all three drugs; cited from earlier work

Row | SMILES | pIC50 (human 5-HT2A receptor) | correction of a 19.8% sciatic motor conduction deficit (diabetic rats)
1 | COCCNC(=O)COc1ccc(NC(=O)c2cccc(C(F)(F)F)c2)cc1-c1c(Cl)cnn1C [Compound 50, N-{3-(4-Chloro-2-methyl-2H-pyrazol-3-yl)-4-[(2-methoxy-ethylcarbamoyl)-methoxy]-phenyl}-3-trifluoromethyl-benzamide] | 7.28 | –
2 | COc1cccc(C(=O)Nc2ccc(OCCO)c(-c3c(Cl)cnn3C)c2)c1 [Compound 68, N-[3-(4-Chloro-2-methyl-2H-pyrazol-3-yl)-4-(2-hydroxy-ethoxy)-phenyl]-3-methoxy-benzamide] | 9.29 | –
3 | COCCOc1ccc(NC(=O)c2cccc(C(F)(F)F)c2)cc1-c1ccnn1C [Compound 52, N-[4-(2-Methoxy-ethoxy)-3-(2-methyl-2H-pyrazol-3-yl)-phenyl]-3-trifluoromethyl-benzamide] | 8.36 | –
4 | Cc1nc2sccn2c(=O)c1CCN1CCC(=C(c2ccc(F)cc2)c2ccc(F)cc2)CC1 [ritanserin] | – | 82.6-99.7%
5 | COc1cccc(CCc2ccccc2OCC(CN(C)C)OC(=O)CCC(=O)O)c1 (stereo not shown) [sarpogrelate] | – | 82.6-99.7%
6 | O=CN1CCC(C(=O)NCCN2CCC(=C3c4ccccc4C=Cc4ccccc43)CC2)CC1 [AT-1015] | – | 82.6-99.7%
7 | COCCNCCOc1ccc(NC(=O)c2cccc(C(F)(F)F)c2)cc1-c1c(Cl)cnn1C [Compound 15, N-{3-(4-Chloro-2-methyl-2H-pyrazol-3-yl)-4-[2-(2-methoxy-ethylamino)-ethoxy]-phenyl}-3-trifluoromethyl-benzamide] | 10.09 | –
